Source: ChEMBL document CHEMBL4177731, “Synthesis, in vitro α-glucosidase inhibitory activity and docking studies of novel chromone-isatin derivatives” (Bioorg Med Chem Lett, 2018)

experiment: Inhibition of Saccharomyces cerevisiae alpha-glucosidase pre-incubated for 15 mins before p-nitrophenyl alpha-D-glucopyranoside substrate addition and measured after 30 mins by spectrophotometry

SMILES	IC50 [µM]
O=C1/C(=N\N=C\c2coc3ccccc3c2=O)c2ccccc2N1Cc1cccc(F)c1	16
O=C1/C(=N\N=C\c2coc3ccccc3c2=O)c2ccccc2N1Cc1ccccc1Cl	13.5
O=C1/C(=N\N=C\c2coc3cc(O)ccc3c2=O)c2ccccc2N1Cc1ccccc1Cl	5.51
O=C1/C(=N\N=C\c2coc3cc(O)ccc3c2=O)c2ccccc2N1Cc1ccc(F)cc1	3.82
O=C1Nc2ccccc2/C1=N/N=C/c1coc2ccccc2c1=O	16.2
CN1C(=O)/C(=N\N=C\c2coc3ccccc3c2=O)c2ccccc21	11.8
O=C1/C(=N\N=C\c2coc3cc(O)ccc3c2=O)c2ccccc2N1Cc1ccc(Br)cc1	3.18
O=C1/C(=N\N=C\c2coc3cc(O)ccc3c2=O)c2ccccc2N1Cc1ccc(Cl)cc1Cl	4.25
O=C1/C(=N\N=C\c2coc3cc(O)ccc3c2=O)c2ccccc2N1Cc1ccccc1Br	4.73
O=C1/C(=N\N=C\c2coc3ccccc3c2=O)c2ccccc2N1Cc1ccc(F)cc1	9.8
O=C1/C(=N\N=C\c2coc3ccccc3c2=O)c2ccccc2N1Cc1ccccc1F	14
O=C1/C(=N\N=C\c2coc3cc(O)ccc3c2=O)c2ccccc2N1Cc1ccccc1F	4.57
O=C1/C(=N\N=C\c2coc3ccccc3c2=O)c2ccccc2N1Cc1ccc(Cl)cc1	16.6
O=C1/C(=N\N=C\c2coc3ccccc3c2=O)c2ccccc2N1Cc1ccc(Br)cc1	8.17
O=C1/C(=N\N=C\c2coc3cc(O)ccc3c2=O)c2ccccc2N1Cc1ccc(Cl)cc1	3.9
O=C1/C(=N\N=C\c2coc3cc(O)ccc3c2=O)c2ccccc2N1Cc1cccc(F)c1	4.17
